Assay results from DBAASP.
Converted amounts (≈) assume the structure as drawn.

Assays:
Assay in all cases: ≥ marks a high value that may be exact or a test limit, other limits are often not marked, values filed in µg/mL are converted to µM
[1] = system: Achromobacter xylosoxidans
Candida albicans = system: Candida albicans
Escherichia coli UB1005 = system: Escherichia coli UB1005
[2] = system: Pseudomonas aeruginosa ATCC 9027
[3] = system: Pseudomonas aeruginosa M1251
[4] = system: Pseudomonas aeruginosa M1426
[5] = system: Pseudomonas aeruginosa M76
[6] = system: Pseudomonas aeruginosa M917
[7] = system: Pseudomonas aeruginosa PAO1
[8] = system: Pseudomonas aeruginosa R70
Pseudomonas aeruginosa = system: Pseudomonas aeruginosa
Pseudomonas fluorescens = system: Pseudomonas fluorescens
Ralstonia pickettii = system: Ralstonia pickettii
[9] = system: Salmonella enterica serovar Typhimurium
[10] = system: Staphylococcus aureus ATCC 6538
Staphylococcus aureus = system: Staphylococcus aureus
[11] = system: Stenotrophomonas maltophilia
[12] = system: Aeromonas salmonicida 97-4
[13] = system: Aeromonas salmonicida 99-1
Candida albicans C627 = system: Candida albicans C627
[14] = system: Escherichia coli CGSC 4908
Escherichia coli DC2 = system: Escherichia coli DC2
[15] = system: Pseudomonas aeruginosa K799
[16] = system: Pseudomonas aeruginosa Z61
[17] = system: Salmonella enterica serovar typhimurium MS7953s
[18] = system: Salmonella enterica subsp. enterica serovar Typhimurium ATCC 14028s
[19] = system: Staphylococcus aureus C623
[20] = system: Staphylococcus epidermidis C621
[21] = system: Zymomonas mobilis ATCC 10988
Bacillus cereus = system: Bacillus cereus
Escherichia coli = system: Escherichia coli
Leuconostoc lactis = system: Leuconostoc lactis
Listeria innocua = system: Listeria innocua
Micrococcus luteus = system: Micrococcus luteus
Pasteurella multocida = system: Pasteurella multocida
[22] = system: Staphylococcus epidermidis
Streptococcus uberis = system: Streptococcus uberis
Bacillus subtilis C971 = system: Bacillus subtilis C971
[23] = system: Corynebacterium xerosis C875
[24] = system: Enterococcus faecalis C625
[25] = system: Pseudomonas aeruginosa H187
[26] = system: Pseudomonas aeruginosa H188
[27] = system: Salmonella typhimurium C587
[28] = system: Salmonella typhimurium C610
[29] = system: Staphylococcus aureus ATCC 25923
[30] = system: Staphylococcus aureus SAP 0017

SMILES	MIC [1] [µM]	MIC (Candida albicans) [µM]	MIC (Escherichia coli UB1005) [µM]	MIC [3] [µM]	MIC [4] [µM]	MIC [5] [µM]	MIC [6] [µM]	MIC [7] [µM]	MIC [8] [µM]	MIC (Pseudomonas aeruginosa) [µM]	MIC (Pseudomonas fluorescens) [µM]	MIC (Ralstonia pickettii) [µM]	MIC [9] [µM]	MIC (Staphylococcus aureus) [µM]	MIC [11] [µM]	MIC (Escherichia coli DC2) [µM]	MIC [20] [µM]	further results
CC(C)C[C@H](NC(=O)[C@H](CCCCN)NC(=O)[C@H](CCCCN)NC(=O)[C@H](C)NC(=O)[C@H](CC(C)C)NC(=O)[C@H](CCCCN)NC(=O)[C@H](CCCCN)NC(=O)[C@H](CC(C)C)NC(=O)[C@H](CCCCN)NC(=O)[C@H](CCCCN)NC(=O)[C@H](C)NC(=O)[C@H](CC(C)C)NC(=O)[C@H](CCCCN)NC(=O)[C@H](CCCCN)NC(=O)[C@H](C)NC(=O)[C@@H](N)Cc1ccccc1)C(=O)N[C@@H](C)C(=O)N[C@@H](CCCCN)C(=O)O [FAKKLAKKLKKLAKKLAK]	3.89 (≈ 8 µg/mL)	15.6 (≈ 32 µg/mL)	0.973 (≈ 2 µg/mL)	3.89 (≈ 8 µg/mL)	3.89 (≈ 8 µg/mL)	3.89 (≈ 8 µg/mL)	15.6 (≈ 32 µg/mL)	3.89 (≈ 8 µg/mL)	0.973 (≈ 2 µg/mL)	7.78 (≈ 16 µg/mL)	3.89 (≈ 8 µg/mL)	1.95 (≈ 4 µg/mL)	3.89 (≈ 8 µg/mL)	> 62.3	0.486 (≈ 1 µg/mL)			MIC [2]: 7.3 µM (≈ 15 µg/mL); MIC [10]: 7.3 µM (≈ 15 µg/mL)
CC(C)C[C@H](NC(=O)[C@H](C)NC(=O)[C@H](CCCCN)NC(=O)[C@H](CCCCN)NC(=O)[C@H](CC(C)C)NC(=O)[C@H](C)NC(=O)[C@H](CCCCN)NC(=O)[C@H](CCCCN)NC(=O)[C@H](CC(C)C)NC(=O)[C@H](CCCCN)NC(=O)[C@H](CCCCN)NC(=O)[C@H](CC(C)C)NC(=O)[C@H](C)NC(=O)[C@H](CCCCN)NC(=O)[C@H](CC(C)C)NC(=O)[C@H](C)NC(=O)[C@@H](N)Cc1ccccc1)C(N)=O [FALKALKKLKKALKKAL]	≥ 66.9	8.37 (≈ 16 µg/mL)	2.09 (≈ 4 µg/mL)	4.18 (≈ 8 µg/mL)	8.37 (≈ 16 µg/mL)	8.37 (≈ 16 µg/mL)	8.37 (≈ 16 µg/mL)	4.18 (≈ 8 µg/mL)	2.09 (≈ 4 µg/mL)	4.18 (≈ 8 µg/mL)	2.09 (≈ 4 µg/mL)	2.09 (≈ 4 µg/mL)	4.18 (≈ 8 µg/mL)	4.18 (≈ 8 µg/mL)	2.09 (≈ 4 µg/mL)			
CC(=O)[C@H](C)NC(=O)[C@H](C)NC(=O)[C@H](CC(N)=O)NC(=O)[C@H](CC(C)C)NC(=O)[C@H](Cc1ccc(O)cc1)NC(=O)CNC(=O)CNC(=O)CNC(=O)[C@H](Cc1cnc[nH]1)NC(=O)[C@H](Cc1cnc[nH]1)NC(=O)[C@@H](NC(=O)CNC(=O)[C@H](Cc1cnc[nH]1)NC(=O)[C@H](Cc1ccccc1)NC(=O)[C@H](CC(C)C)NC(=O)[C@H](CC(C)C)NC(=O)[C@H](CCCNC(=N)N)NC(=O)[C@H](Cc1ccccc1)NC(=O)[C@@H](N)Cc1ccccc1)C(C)C [FFRLLFHGVHHGGGYLNAA]			30.3 (≈ 63.9 µg/mL)													30.3 (≈ 63.9 µg/mL)	30.3 (≈ 63.9 µg/mL)	MIC [12]: 30.3 µM (≈ 63.9 µg/mL); MIC [13]: 30.3 µM (≈ 63.9 µg/mL); MIC (Candida albicans C627): 30.3 µM (≈ 63.9 µg/mL); MIC [14]: 30.3 µM (≈ 63.9 µg/mL); MIC [15]: 30.3 µM (≈ 63.9 µg/mL); MIC [16]: 30.3 µM (≈ 63.9 µg/mL); MIC [17]: 30.3 µM (≈ 63.9 µg/mL); MIC [18]: 30.3 µM (≈ 63.9 µg/mL); MIC [19]: 30.3 µM (≈ 63.9 µg/mL)
CC[C@H](C)[C@H](NC(=O)[C@H](CCCCN)NC(=O)[C@H](CCC(N)=O)NC(=O)[C@@H](NC(=O)[C@@H](NC(=O)[C@H](CCCN=C(N)N)NC(=O)[C@H](CCCCN)NC(=O)[C@@H](N)Cc1ccccc1)[C@@H](C)CC)C(C)C)C(=O)N[C@@H](CCCCN)C(=O)N[C@@H](CC(=O)O)C(=O)N[C@@H](Cc1ccccc1)C(=O)N[C@@H](CC(C)C)C(=O)N[C@@H](CCCN=C(N)N)C(N)=O [FKRIVQKIKDFLR]																		MIC [21]: ≥ 118 µM
CC[C@H](C)[C@H](NC(=O)[C@H](CO)NC(=O)[C@H](CO)NC(=O)[C@H](C)NC(=O)[C@@H](NC(=O)[C@H](Cc1cnc[nH]1)NC(=O)CNC(=O)[C@H](C)NC(=O)[C@@H](NC(=O)[C@H](CCCCN)NC(=O)[C@H](CCCCN)NC(=O)[C@@H](NC(=O)[C@@H](NC(=O)[C@H](CC(=O)O)NC(=O)[C@H](Cc1ccccc1)NC(=O)[C@H](CC(C)C)NC(=O)CN)[C@@H](C)CC)C(C)C)[C@@H](C)CC)[C@@H](C)CC)C(N)=O [GLFDIVKKIAGHIASSI]														28.3 (≈ 50 µg/mL)				MIC (Bacillus cereus): ≥ 56.5 µM; MIC (Escherichia coli): > 56.5 µM; MIC (Leuconostoc lactis): 3.39 µM (≈ 6 µg/mL); MIC (Listeria innocua): ≥ 56.5 µM; MIC (Micrococcus luteus): ≥ 56.5 µM; MIC (Pasteurella multocida): ≥ 56.5 µM; MIC [22]: 28.3 µM (≈ 50 µg/mL); MIC (Streptococcus uberis): 28.3 µM (≈ 50 µg/mL)
CC[C@H](C)[C@H](NC(=O)[C@H](C)NC(=O)[C@H](CCCCN)NC(=O)[C@H](CC(C)C)NC(=O)[C@H](C)NC(=O)[C@@H](NC(=O)[C@H](Cc1cnc[nH]1)NC(=O)[C@H](CC(C)C)NC(=O)[C@@H](NC(=O)[C@@H](NC(=O)[C@H](CCCCN)NC(=O)CNC(=O)[C@H](C)NC(=O)[C@H](CO)NC(=O)[C@H](CCCCN)NC(=O)[C@H](Cc1ccccc1)NC(=O)[C@@H](NC(=O)[C@H](CCCCN)NC(=O)[C@H](CC(C)C)NC(=O)[C@H](Cc1ccccc1)NC(=O)[C@H](CO)NC(=O)[C@H](CCCCN)NC(=O)[C@H](Cc1c[nH]c2ccccc12)NC(=O)[C@H](CCCCN)NC(C)=O)[C@@H](C)O)[C@@H](C)O)C(C)C)[C@@H](C)O)C(=O)N[C@@H](CO)C(=O)N[C@@H](CO)C(N)=O [KWKSFLKTFKSAGKTVLHTALKAISS]			0.869 (≈ 2.54 µg/mL)													0.869 (≈ 2.54 µg/mL)	1.11 (≈ 3.25 µg/mL)	MIC (Bacillus subtilis C971): 0.695 µM (≈ 2.03 µg/mL); MIC [23]: 0.695 µM (≈ 2.03 µg/mL); MIC [24]: 17.6 µM (≈ 51.5 µg/mL); MIC [25]: 2.22 µM (≈ 6.49 µg/mL); MIC [26]: 3.51 µM (≈ 10.2 µg/mL); MIC [27]: 1.74 µM (≈ 5.07 µg/mL); MIC [28]: 0.869 µM (≈ 2.54 µg/mL); MIC [29]: 8.82 µM (≈ 25.8 µg/mL); MIC [30]: 3.51 µM (≈ 10.2 µg/mL)
